In one test the target is T1, JAK3 (Homo sapiens, UniProt P52333).
T1 sequence (P52333 1-1124): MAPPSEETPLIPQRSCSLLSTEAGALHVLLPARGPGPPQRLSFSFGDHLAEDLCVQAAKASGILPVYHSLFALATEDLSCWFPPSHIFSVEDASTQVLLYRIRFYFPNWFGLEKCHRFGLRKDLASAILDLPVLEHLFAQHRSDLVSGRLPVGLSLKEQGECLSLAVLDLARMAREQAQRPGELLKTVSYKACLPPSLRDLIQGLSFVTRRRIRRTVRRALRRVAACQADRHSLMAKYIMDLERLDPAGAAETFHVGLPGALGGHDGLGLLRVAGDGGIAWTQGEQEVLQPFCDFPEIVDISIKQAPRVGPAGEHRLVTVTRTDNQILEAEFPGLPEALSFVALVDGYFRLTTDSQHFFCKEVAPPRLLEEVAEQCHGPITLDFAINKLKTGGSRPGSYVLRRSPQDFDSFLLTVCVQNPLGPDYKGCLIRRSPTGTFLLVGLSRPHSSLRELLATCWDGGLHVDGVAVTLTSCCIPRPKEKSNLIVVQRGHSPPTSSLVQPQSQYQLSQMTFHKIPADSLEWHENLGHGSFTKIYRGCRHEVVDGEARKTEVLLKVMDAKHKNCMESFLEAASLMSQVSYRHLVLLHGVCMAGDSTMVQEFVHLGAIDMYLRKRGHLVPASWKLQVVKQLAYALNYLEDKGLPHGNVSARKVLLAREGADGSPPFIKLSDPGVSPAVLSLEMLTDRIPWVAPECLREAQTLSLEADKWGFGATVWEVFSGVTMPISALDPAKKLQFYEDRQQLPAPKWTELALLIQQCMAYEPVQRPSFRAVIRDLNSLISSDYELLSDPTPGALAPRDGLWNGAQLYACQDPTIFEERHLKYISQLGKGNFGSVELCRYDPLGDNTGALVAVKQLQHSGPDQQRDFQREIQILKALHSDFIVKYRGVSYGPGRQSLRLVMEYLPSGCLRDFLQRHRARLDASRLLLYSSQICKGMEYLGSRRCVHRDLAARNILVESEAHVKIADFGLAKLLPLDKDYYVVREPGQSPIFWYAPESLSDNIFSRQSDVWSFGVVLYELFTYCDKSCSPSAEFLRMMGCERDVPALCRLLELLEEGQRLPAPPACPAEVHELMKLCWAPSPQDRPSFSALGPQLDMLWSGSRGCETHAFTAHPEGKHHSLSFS
Put plainly: JAK3 Inhibition Assay. The conditions noted are these: 1 nM JAK3, 1 μM poly(Glu)4Tyr, 5 μM ATP, 25° C.; read-out: enzyme inhibition data (Ki) JAK3. Format: biochemical. As for the experimental part:
(§1) Compounds were screened for their ability to inhibit JAK3 using the assay shown below. Reactions were carried out in a kinase buffer containing 100 mM HEPES (pH 7.4), 1 mM DTT, 10 mM MgCl2, 25 mM NaCl, and 0.01% BSA. Substrate concentrations in the assay were 5 μM ATP (200 uCi/μmole ATP) and 1 μM poly(Glu)4Tyr. Reactions were carried out 25° C. and 1 nM JAK3.
(§2) To each well of a 96 well polycarbonate plate was added 1.5 μl of a candidate JAK3 inhibitor along with 50 μl of kinase buffer containing 2 μM poly(Glu)4Tyr and 10 μM ATP. This was then mixed and 50 μl of kinase buffer containing 2 nM JAK3 enzyme was added to start the reaction. After 20 minutes at room temperature (25° C.), the reaction was stopped with 50 μl of 20% trichloroacetic acid (TCA) that also contained 0.4 mM ATP. The entire contents of each well were then transferred to a 96 well glass fiber filter plate using a TomTek Cell Harvester. After washing, 60 μl of scintillation fluid was added and ^33P incorporation detected on a Perkin Elmer TopCount.

Another test has as its target JAK2 (Homo sapiens, UniProt O60674). Put plainly: JAK2 Inhibition Assay. Format: biochemical. The conditions noted are these: JAK-2 enzyme, 15 μM poly(Glu)4Tyr, 12 μM ATP. On the procedure:
as §1, §2
The assays were as described above in Example 36 except that JAK-2 enzyme was used, the final poly(Glu)4Tyr concentration was 15 μM, and final ATP concentration was 12 μM.

The structures appear in SMILES notation. Bounds are passed on as bounds.

Results on 28 compounds are retold here after US8580802B2, “Pyrrolo[2,3-D]pyrimidines as inhibitors of Janus kinases” (Vertex Pharmaceuticals Incorporated, priority 2005, dated 2013).

JAK2, sequence (O60674 whole entry): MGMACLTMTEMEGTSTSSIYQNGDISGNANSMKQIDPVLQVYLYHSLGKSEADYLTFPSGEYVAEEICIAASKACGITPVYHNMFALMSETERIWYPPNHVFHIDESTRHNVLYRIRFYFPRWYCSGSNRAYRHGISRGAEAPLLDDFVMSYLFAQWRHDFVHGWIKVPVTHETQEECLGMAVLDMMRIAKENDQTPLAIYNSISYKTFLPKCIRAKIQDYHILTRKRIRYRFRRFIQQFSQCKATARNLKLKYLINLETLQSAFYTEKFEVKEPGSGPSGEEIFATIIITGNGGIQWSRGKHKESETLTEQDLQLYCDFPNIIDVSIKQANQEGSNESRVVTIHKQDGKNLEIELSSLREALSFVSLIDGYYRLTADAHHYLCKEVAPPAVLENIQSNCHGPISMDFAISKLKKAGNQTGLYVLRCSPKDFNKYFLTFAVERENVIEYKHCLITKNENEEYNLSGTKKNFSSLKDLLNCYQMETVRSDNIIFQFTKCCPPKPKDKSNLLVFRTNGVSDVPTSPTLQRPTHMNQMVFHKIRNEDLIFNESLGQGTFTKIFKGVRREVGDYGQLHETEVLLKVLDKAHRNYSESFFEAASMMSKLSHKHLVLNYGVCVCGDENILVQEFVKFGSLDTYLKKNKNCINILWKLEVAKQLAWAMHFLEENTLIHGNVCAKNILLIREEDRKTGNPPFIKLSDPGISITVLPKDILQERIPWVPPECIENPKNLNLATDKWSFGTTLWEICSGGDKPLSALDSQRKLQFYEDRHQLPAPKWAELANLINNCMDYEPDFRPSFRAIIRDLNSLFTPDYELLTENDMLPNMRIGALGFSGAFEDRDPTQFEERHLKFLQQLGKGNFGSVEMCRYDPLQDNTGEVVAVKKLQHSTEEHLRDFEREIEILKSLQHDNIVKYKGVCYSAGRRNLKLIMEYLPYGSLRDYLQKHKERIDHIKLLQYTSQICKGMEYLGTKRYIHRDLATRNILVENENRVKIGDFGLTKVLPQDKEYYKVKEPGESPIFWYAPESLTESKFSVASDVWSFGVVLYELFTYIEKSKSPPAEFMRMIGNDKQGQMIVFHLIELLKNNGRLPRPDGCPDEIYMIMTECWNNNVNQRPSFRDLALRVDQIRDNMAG

The term Ki denotes a measure of affinity in units of concentration, obtained from inhibition or displacement. As for `CC(=O)N1[C@H](C)CN(c2cccc(-c3c[nH]c4ncncc34)n2)C[C@@H]1C` [Compound 1, 1-((2S,6R)-4-(6-(7H-pyrrolo[2,3-d]pyrimidin-5-yl)pyridin-2-yl)-2,6-dimethylpiperazin-1-yl)ethanone], the Ki at JAK3 and at JAK2 was < 500 nM throughout.

Regarding `CCOC(=O)c1cc(N[C@@H](C)C(=O)NCC(F)(F)F)nc(-c2c[nH]c3ncncc23)n1` [Compound 2], the Ki on JAK3 is 500 to 5000 nM; at JAK2 it was > 5000 nM.

As for `C[C@H](Nc1cc(C(=O)O)nc(-c2c[nH]c3ncncc23)n1)C(=O)NCC(F)(F)F` [Compound 3, 6-((S)-1-(2,2,2-trifluoroethylcarbamoyl)ethylamino)-2-(7H-pyrrolo[2,3-d]pyrimidin-5-yl)pyrimidine-4-carboxylic acid], the Ki at JAK3 is < 500 nM; at JAK2 it was > 5000 nM.

As to `C[C@H](Nc1cccc(-c2c[nH]c3ncncc23)n1)C(=O)NCC(F)(F)F` [Compound 4, (S)-2-(6-(7H-pyrrolo[2,3-d]pyrimidin-5-yl)pyridin-2-ylamino)-N-(2,2,2-trifluoroethyl)propanamide], the Ki on JAK3 and on JAK2 was < 500 nM each time.

As to `C[C@H](Nc1ccnc(-c2c[nH]c3ncncc23)n1)C(=O)NCC(F)(F)F` [Compound 5, (S)-2-(2-(7H-pyrrolo[2,3-d]pyrimidin-5-yl)pyrimidin-4-ylamino)-N-(2,2,2-trifluoroethyl)propanamide], the Ki at JAK3 and at JAK2 was < 500 nM throughout.

As for `C[C@H](Nc1nc(-c2c[nH]c3ncncc23)ncc1F)C(=O)NCC(F)(F)F` [Compound 6, (S)-2-(5-fluoro-2-(7H-pyrrolo[2,3-d]pyrimidin-5-yl)pyrimidin-4-ylamino)-N-(2,2,2-trifluoroethyl)propanamide], the Ki at JAK3 and on JAK2 was < 500 nM in each case.

In the case of `CC1CCN(C(=O)c2cc(N[C@@H](C)C(=O)NCC(F)(F)F)nc(-c3c[nH]c4ncncc34)n2)CC1` [Compound 7], the Ki on JAK3 was < 500 nM; at JAK2, 500 to 5000 nM.

Turning to `C[C@H](Nc1cc(C(=O)N2CCC[C@H]2CO)nc(-c2c[nH]c3ncncc23)n1)C(=O)NCC(F)(F)F` [Compound 8], the Ki was < 500 nM on JAK3 and 500 to 5000 nM on JAK2.

In the case of `C[C@H](Nc1cc(C(=O)N2CCCC2)nc(-c2c[nH]c3ncncc23)n1)C(=O)NCC(F)(F)F` [Compound 9], the Ki on JAK3 was < 500 nM; at JAK2, 500 to 5000 nM.

Take `C[C@H](Nc1cc(OC2CCOC2)nc(-c2c[nH]c3ncncc23)n1)C(=O)NCC(F)(F)F` (some centres unmarked) [Compound 10]: the results for the Ki on JAK3 and at JAK2 were 500 to 5000 nM and > 5000 nM, respectively.

`COC[C@H]1CCCN1C(=O)c1cc(N[C@@H](C)C(=O)NCC(F)(F)F)nc(-c2c[nH]c3ncncc23)n1` [Compound 11]: the Ki is 500 to 5000 nM at JAK3 and > 5000 nM at JAK2.

Regarding `C[C@H](Nc1cc(C(=O)N2CCOCC2)nc(-c2c[nH]c3ncncc23)n1)C(=O)NCC(F)(F)F` [Compound 12], the values for the Ki on JAK3 and at JAK2 were < 500 nM and 500 to 5000 nM, respectively.

Consider `C[C@H](Nc1cc(C(=O)N2CCC(O)CC2)nc(-c2c[nH]c3ncncc23)n1)C(=O)NCC(F)(F)F` [Compound 13], for which the inhibitory constant (Ki) at JAK3 and on JAK2 was 500 to 5000 nM throughout.

In the case of `COCCNC(=O)c1cc(N[C@@H](C)C(=O)NCC(F)(F)F)nc(-c2c[nH]c3ncncc23)n1` [Compound 14], the Ki at JAK3 was < 500 nM; at JAK2 it was 500 to 5000 nM.

`C[C@H](Nc1cc(C(=O)N(C)CCO)nc(-c2c[nH]c3ncncc23)n1)C(=O)NCC(F)(F)F` [Compound 15]: the Ki on JAK3 and at JAK2 was 500 to 5000 nM in each case.

With `CC(C)[C@H](C)NC(=O)c1cc(N[C@@H](C)C(=O)NCC(F)(F)F)nc(-c2c[nH]c3ncncc23)n1` [Compound 16], the inhibition constant Ki on JAK3 and on JAK2 was 500 to 5000 nM each time.

As to `C[C@H](Nc1cc(C(=O)N(C)Cc2ccccc2)nc(-c2c[nH]c3ncncc23)n1)C(=O)NCC(F)(F)F` [Compound 17], the inhibition constant (Ki) at JAK3 and on JAK2 was 500 to 5000 nM in each case.

In the case of `C[C@H](Nc1cc(-c2ccccc2)nc(-c2c[nH]c3ncncc23)n1)C(=O)NCC(F)(F)F` [Compound 18, (S)-2-(6-phenyl-2-(7H-pyrrolo[2,3-d]pyrimidin-5-yl)pyrimidin-4-ylamino)-N-(2,2,2-trifluoroethyl)propanamide], the Ki on JAK3 was < 500 nM; on JAK2, 500 to 5000 nM.

As for `C[C@H](Nc1cc(C#N)cc(-c2c[nH]c3ncncc23)n1)C(=O)NCC(F)(F)F` [Compound 19, (S)-2-(4-cyano-6-(7H-pyrrolo[2,3-d]pyrimidin-5-yl)pyridin-2-ylamino)-N-(2,2,2-trifluoroethyl)propanamide], the inhibitory constant (Ki) is < 500 nM on JAK3 and 500 to 5000 nM at JAK2.

`C[C@H](Nc1cc(-c2nnn[nH]2)cc(-c2c[nH]c3ncncc23)n1)C(=O)NCC(F)(F)F` [Compound 20, (S)-2-(6-(7H-pyrrolo[2,3-d]pyrimidin-5-yl)-4-(1H-tetrazol-5-yl)pyridin-2-ylamino)-N-(2,2,2-trifluoroethyl)propanamide]: the Ki at JAK3 is < 500 nM; at JAK2, 500 to 5000 nM.

Consider `OC[C@@H]1CCCN1c1nc(-c2c[nH]c3ncncc23)ncc1F` [Compound 21, ((S)-1-(5-fluoro-2-(7H-pyrrolo[2,3-d]pyrimidin-5-yl)pyrimidin-4-yl)pyrrolidin-2-yl)methanol], for which the Ki on JAK3 and on JAK2 was 500 to 5000 nM each time.

Turning to `OC[C@H]1CCCN1c1nc(-c2c[nH]c3ncncc23)ncc1F` [Compound 22, ((R)-1-(5-fluoro-2-(7H-pyrrolo[2,3-d]pyrimidin-5-yl)pyrimidin-4-yl)pyrrolidin-2-yl)methanol], the Ki on JAK3 and on JAK2 was 500 to 5000 nM in each case.

`COC[C@@H]1CCCN1c1nc(-c2c[nH]c3ncncc23)ncc1F` [Compound 23, 5-(5-fluoro-4-((S)-2-(methoxymethyl)pyrrolidin-1-yl)pyrimidin-2-yl)-7H-pyrrolo[2,3-d]pyrimidine]: the Ki at JAK3 and on JAK2 was 500 to 5000 nM in each case.

Regarding `Fc1cnc(-c2c[nH]c3ncncc23)nc1N1CCCC1` [Compound 24, 5-(5-fluoro-4-(pyrrolidin-1-yl)pyrimidin-2-yl)-7H-pyrrolo[2,3-d]pyrimidine], the inhibition constant (Ki) on JAK3 and on JAK2 was 500 to 5000 nM throughout.

On to `COC[C@H]1CCCN1c1nc(-c2c[nH]c3ncncc23)ncc1F` [Compound 25, 5-(5-fluoro-4-((R)-2-(methoxymethyl)pyrrolidin-1-yl)pyrimidin-2-yl)-7H-pyrrolo[2,3-d]pyrimidine], for which the Ki at JAK3 and on JAK2 was 500 to 5000 nM in each case.

In the case of `O=C(NCC(F)(F)F)[C@@H]1CCCN1c1nc(-c2c[nH]c3ncncc23)ncc1F` [Compound 26], the Ki on JAK3 is 500 to 5000 nM; on JAK2, > 5000 nM.

As to `O=C(NCC(F)(F)F)[C@H]1CCCN1c1nc(-c2c[nH]c3ncncc23)ncc1F` [Compound 27], the Ki at JAK3 and at JAK2 was < 500 nM in each case.

For the compound `CC(C)(C)OC(=O)N1CC=C(c2cccc(-c3c[nH]c4ncncc34)n2)CC1` [Compound 28, 6-(7H-Pyrrolo[2,3-d]pyrimidin-5-yl)-3′,6′-dihydro-2′H-[2,4′]bipyridinyl-1′-carboxylic acid tert-butyl ester], the Ki on JAK3 and at JAK2 was 500 to 5000 nM in each case.
